Assay results: ChEMBL document CHEMBL1158628, “Quinlobelane: a water-soluble lobelane analogue and inhibitor of VMAT2” (Bioorg Med Chem Lett, 2010)

How the values were obtained:
[1] = biological target: T1, Synaptic vesicular amine transporter (Rattus norvegicus, UniProt Q01827); assay: Displacement of [3H]DTBZ from VMAT2 in rat synaptic vesicle membranes after 30 mins by liquid scintillation counting; type: cell membranes, Membrane
[2] = biological target: T1, Synaptic vesicular amine transporter; assay: Inhibition of VMAT2-mediated [3H]dopamine uptake in rat synaptic vesicle membranes; type: cell membranes, Membrane
[3] = Aqueous solubility in water; type: physicochemical

T1 sequence (Q01827 whole entry): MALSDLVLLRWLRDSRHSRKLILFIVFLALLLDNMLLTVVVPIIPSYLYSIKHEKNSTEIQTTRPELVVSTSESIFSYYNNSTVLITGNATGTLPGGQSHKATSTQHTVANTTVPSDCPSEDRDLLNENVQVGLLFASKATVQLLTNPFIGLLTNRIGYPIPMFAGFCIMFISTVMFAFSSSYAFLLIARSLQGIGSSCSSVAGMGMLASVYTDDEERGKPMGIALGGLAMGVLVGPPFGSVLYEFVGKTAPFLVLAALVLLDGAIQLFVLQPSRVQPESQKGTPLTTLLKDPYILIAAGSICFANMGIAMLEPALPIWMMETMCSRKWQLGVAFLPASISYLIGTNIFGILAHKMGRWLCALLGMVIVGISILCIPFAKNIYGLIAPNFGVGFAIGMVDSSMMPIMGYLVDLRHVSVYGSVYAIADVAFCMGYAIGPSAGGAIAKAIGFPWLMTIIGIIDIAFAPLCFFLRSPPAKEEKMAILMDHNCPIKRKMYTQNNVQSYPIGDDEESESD

Structure (SMILES)	Ki [1] [µM]	Ki [2] [µM]	solubility [3] [µg/mL]
CN1[C@@H](CCc2ccc3ccccc3n2)CCC[C@H]1CCc1ccc2ccccc2n1	0.96	0.067	–
CN1[C@@H](CCc2c[nH]c3ccccc23)CCC[C@H]1CCc1c[nH]c2ccccc12	26	2.13	–
CN1[C@@H](CCc2ccncc2)CCC[C@H]1CCc1ccncc1	5.87	5.23	–
CN1[C@@H](CCc2ccccc2)CCC[C@H]1CCc1ccccc1.O=S(=O)(O)O	–	–	300
CN1[C@@H](CCc2cccnc2)CCC[C@H]1CCc1cccnc1	33.3	3.72	–
CN1[C@@H](CCc2ccnc3ccccc23)CCC[C@H]1CCc1ccnc2ccccc12.Cl [QUINLOBELANE]	2.64	0.051	≥ 20000
